Here are results for three compounds from patent publication US20060100255A1, “Substituted indolealkanoic acids derivative and formulations containing same for use in the treatment of diabetic complications” (priority 2002, published 2006).

Assay [1] concerns sorbitol levels in the sciatic nerve and lens. Kind of assay: 8-day STZ diabetic rat model, sorbitol lowering versus known ARIs. It counts as in vivo. To be noted: 10 mg/kg/day. The text has this:
3-[(4,5,7-trifluoro-1,3-benzothiazol-2-yl)methyl]-1H-indol-1-yl}acetic acid monohydrate is compared to the known […] inhibitors (ARI) zenarestat and zopolrestat in an 8-day STZ diabetic rat model.

In the next assay the test system is Tissue Sorbitol Levels. Kind of assay: tissue sorbitol levels in the STZ induced diabetic rat, 30 and 90 day studies. It counts as in vivo. An excerpt:
(§1) The test methods employed to determine the efficacy are essentially those of Mylari, et al., J. Med. Chem. 34: 108, 1991.
[(4,5,7-trifluoro-1,3-benzothiazol-2-yl)methyl]-1H-indol-1-yl}acetic acid monohydrate in reducing Tissue Sorbitol Levels in the STZ Induced Diabetic Rat

The next assay relates to NCV. Kind of assay: comparison with zenarestat and zopolrestat, inhibition of decline in NCV. It counts as in vivo. The text has this: 3-[(4,5,7-trifluoro-1,3-benzothiazol-2-yl)methyl]-1H-indol-1-yl}acetic acid monohydrate compares very favorably with the ability of zenarestat and zopolrestat to inhibit the decline in NCV. […]
Assay [2] concerns sorbitol accumulation in the sciatic nerve. Kind of assay: sorbitol accumulation in sciatic nerve of streptozotocin-induced diabetic rats, 15 day study. It counts as in vivo, rat.
From the text: as §1

Assay [3] deals with nerve conduction velocity (NCV) in the sciatic nerve. The assay is described as follows: 3 month study in STZ-diabetic rats, nerve conduction velocity. It counts as in vivo, rat. Particulars: 3 months treatment.
The test system is the same in assay [4]. The assay is described as follows: 4-week study in STZ-diabetic rats, loss of nerve conduction velocity. It counts as in vivo, rat.

As to `O=C(O)Cn1cc(Cc2nc3c(F)c(F)cc(F)c3s2)c2ccccc21` [Example 1, 3-(4,5,7-Trifluorobenzothiazol-2-yl)methyl-indole-N-acetic Acid, monohydrate], the Lens sorbitol lowering in assay [1] is listed as 25-42%. Further, in assay [1], the “Sciatic Nerve sorbitol lowering” value is 100%. In addition, the “% Sorbitol Reduction, Lens” value worked out at 88% in the assay with Tissue Sorbitol Levels (30 days, 5 mg/kg/day); 90% with Tissue Sorbitol Levels (30 days, 10 mg/kg/day); 95% with Tissue Sorbitol Levels (30 days, 25 mg/kg/day). Also, the “% Sorbitol Reduction, Sciatic Nerve” value was found to be 100% in the assay on Tissue Sorbitol Levels (30 days, 5 mg/kg/day); 100% in the assay on Tissue Sorbitol Levels (30 days, 10 mg/kg/day); 100% in the assay with Tissue Sorbitol Levels (30 days, 25 mg/kg/day); 100% with Tissue Sorbitol Levels (90 days, 5 mg/kg/day); 100% with Tissue Sorbitol Levels (90 days, 10 mg/kg/day); 100% in the assay with Tissue Sorbitol Levels (90 days, 25 mg/kg/day). Further, the “% Sorbitol Reduction, Kidney Cortex” value is listed as 33% with Tissue Sorbitol Levels (90 days, 5 mg/kg/day); 25% in the assay with Tissue Sorbitol Levels (90 days, 10 mg/kg/day); 45% with Tissue Sorbitol Levels (90 days, 25 mg/kg/day). The “% Sorbitol Reduction, Kidney Medulla” value is given as 36% in the assay on Tissue Sorbitol Levels (90 days, 5 mg/kg/day); 47% with Tissue Sorbitol Levels (90 days, 10 mg/kg/day); 58% in the assay on Tissue Sorbitol Levels (90 days, 25 mg/kg/day). Besides, the “% Sorbitol Reduction, Retina” value is reported as 89% with Tissue Sorbitol Levels (90 days, 5 mg/kg/day); 99% in the assay on Tissue Sorbitol Levels (90 days, 10 mg/kg/day); 96% in the assay on Tissue Sorbitol Levels (90 days, 25 mg/kg/day). The “Improvement in NCV” value in the assay with NCV (25 mg/kg/day, study 4 weeks, treatment 3 weeks) stood at 79%; in assay [3] (5 mg/kg/day) it was 50%; in assay [3] (10 mg/kg/day) it was 68%; in assay [3] (25 mg/kg/day), 105%. In addition, the “ED50, sorbitol accumulation in rat sciatic nerve” value in assay [2] (15 day study) is on record as 1.3 mg/kg/day. For the same compound, the “inhibition of sorbitol accumulation, rat sciatic nerve” value in assay [2] (15 day study, 4.8 mg/kg/day) worked out at 100%. Besides, the changes in fructose entry in assay [2] (STZ diabetic rat tissues) was “levels were reduced”. Besides, in assay [2] (STZ diabetic rat tissues), the changes in mysinositol result is on record as “levels were increased”. In addition, the “inhibition of decline of nerve conduction velocity (NCV) in the sciatic nerve” value in assay [4] (5 mg/kg/day) worked out at 14%; in assay [4] (10 mg/kg/day), 41%; in assay [4] (25 mg/kg/day), 79%.
With `O=C(O)Cc1nn(Cc2nc3cc(C(F)(F)F)ccc3s2)c(=O)c2ccccc12` [zopolrestat], in assay [1], the Lens sorbitol lowering is 0% and the “Sciatic Nerve sorbitol lowering” value is 71%. Further, the “Improvement in NCV” value with NCV (25 mg/kg/day, study 4 weeks, treatment 4 weeks) was 43%.
Turning to `O=C(O)Cn1c(=O)n(Cc2ccc(Br)cc2F)c(=O)c2ccc(Cl)cc21` [zenarestat], in assay [1], the Lens sorbitol lowering came to 0% and the “Sciatic Nerve sorbitol lowering” value came out at 52%. The “Improvement in NCV” value in the assay on NCV (32 mg/kg/day, study 2 weeks, treatment 2 weeks) amounted to 48%.
